Source: ChEMBL document CHEMBL1121882, “Approaches to vasodilating/beta-adrenergic blocking agents: examples of the dihydrolutidine type” (1981)

How the values were obtained:
[1] = system: Rattus norvegicus; test: Compound was tested for effect on arterial pressure in spontaneously hypertensive rats (SHR) at 5 mg/kg, po; assay type: functional, Artery
[2] = system: Rattus norvegicus; test: Compound was tested for effect on arterial pressure in spontaneously hypertensive rats (SHR) at 20 mg/kg administered intraperitoneally; Death; assay type: functional, organism-based; design: dose 20 mg/kg; details: Artery
[3] = system: Rattus norvegicus; test: Compound was tested for effect on arterial pressure in spontaneously hypertensive rats (SHR) at 1.25 mg/kg, po; assay type: functional, Artery
[4] = system: Rattus norvegicus; test: Compound was tested for effect on arterial pressure in spontaneously hypertensive rats (SHR) at 20 mg/kg administered intraperitoneally; assay type: functional, Artery; details: route intraperitoneal
[5] = system: Rattus norvegicus; test: Compound was tested for effect on arterial pressure in spontaneously hypertensive rats (SHR) at 20 mg/kg, po; assay type: functional, Artery

Compound	Max fall in MAP [1] [mmHg]	Max fall in MAP [2]	Max fall in MAP [3] [mmHg]	other results
CCOC(=O)C1=C(C)N=C(C)/C(=C(/O)OCC)C1c1ccccc1C(F)(F)F (stereo not given)	41			
CC(C)NCC(O)COc1cccc2ccccc12 (stereo not given) [PROPRANOLOL]	7			
CCOC(=O)C1=C(C)N=C(C)/C(=C(/O)OCC)C1c1ccc(OCC(O)CNC(C)(C)C)cc1 (stereo not given)	17	Death		
CCOC(=O)C1=C(C)N=C(C)/C(=C(/O)OCC)C1c1ccc(OCC(O)CNC(C)(C)C)cc1C (stereo not given)	42	Death	12	
CC(C)(C)NC[C@H](O)COc1nsnc1N1CCOCC1 [TIMOLOL]			-1	
CCOC(=O)C1=C(C)N=C(C)/C(=C(/O)OCC)C1c1ccccc1OCC(O)CNC(C)(C)C (stereo not given)				Max fall in MAP [4]: 15 mmHg; Max fall in MAP [5]: 16 mmHg
